From ChEMBL document CHEMBL3046363, “Synthesis, fungicidal, and insecticidal activities of beta-Methoxyacrylate-containing N-acetyl pyrazoline derivatives” (J Agric Food Chem, 2008)
Converted amounts (≈) assume the structure as drawn. The source made the active and inactive calls. No cut-off for these calls is given here.

Columns and labels:
[1] = system: Rhizoctonia solani; assay: In vivo fungicidal activity against Rhizoctonia solani infected in cucumber plants assessed as inhibition of disease symptoms at 200 ug/ml treated one day prior to fungal spore inoculation measured after one week; assay type: functional, organism-based
[2] = system: Botrytis cinerea; assay: In vivo fungicidal activity against Botryotinia fuckeliana infected in cucumber plants assessed as inhibition of disease symptoms at 200 ug/ml treated one day prior to fungal spore inoculation measured after one week; assay type: functional, organism-based
[3] = system: Podosphaera fuliginea; assay: In vivo fungicidal activity against Podosphaera fuliginea infected cucumber plants assessed as inhibition of disease symptoms at 200 ug/ml treated one day prior to fungal spore inoculation measured after one week; assay type: functional
[4] = system: Pseudoperonospora cubensis; assay: In vivo fungicidal activity against Pseudoperonospora cubensis infected in cucumber plants assessed as inhibition of disease symptoms at 200 ug/ml treated one day prior to fungal spore inoculation measured after one week; assay type: functional
[5] = system: Mythimna separata; assay: In vivo insecticidal activity against Mythimna separata (Oriental armyworm) assessed as mortality after 72 hr; assay type: functional
[6] = system: Mythimna separata; assay: In vivo insecticidal activity against Mythimna separata (Oriental armyworm) assessed as mortality at 500 ug/ml after 72 hr; assay type: functional
[7] = system: Podosphaera fuliginea; assay: In vivo fungicidal activity against Podosphaera fuliginea infected cucumber plants assessed as inhibition of disease symptoms treated one day prior to fungal spore inoculation measured after one week; assay type: functional, organism-based
[8] = system: Pseudoperonospora cubensis; assay: In vivo fungicidal activity against Pseudoperonospora cubensis infected in cucumber plants assessed as inhibition of disease symptoms treated one day prior to fungal spore inoculation measured after one week; assay type: functional, organism-based
[9] = system: Tetranychus cinnabarinus; assay: In vivo insecticidal activity against Tetranychus cinnabarinus (carmine spider mite) assessed as mortality at 500 ug/ml after 72 hr; assay type: functional
[10] = system: Aphis medicaginis; assay: In vivo insecticidal activity against Aphis medicaginis assessed as mortality at 1 g/l after 72 hr; assay type: functional, organism-based
[11] = system: Nilaparvata lugens; assay: In vivo insecticidal activity against fifth instar larval stage of Nilaparvata lugens (brown planthopper) in […] rice seedlings assessed as mortality at 1 g/l treated for 5 secs before larval infestation measured after 72 hr; assay type: functional, organism-based

Row | Compound | inhibition [1] | inhibition [2] | inhibition in vivo at 200 µg/mL [3] [%] | inhibition in vivo at 200 µg/mL [4] [%] | LC50 [5] [µg/mL] | mortality at 500 µg/mL [6] [%] | IC50 [7] [µg/mL] | IC50 [8] [µg/mL] | mortality at 500 µg/mL [9] [%] | mortality [10] | mortality [11]
1 | CO/C=C(/C(=O)OC)c1ccccc1COc1ccc(C2=NN(C(C)=O)C(c3ccc(C)cc3)C2)cc1 (stereo not drawn) | inactive | inactive | < 60 | < 60 |  |  |  |  |  |  | 
2 | CCc1ccc(C2CC(c3ccc(OCc4ccccc4/C(=C\OC)C(=O)OC)cc3)=NN2C(C)=O)cc1 (stereo not drawn) | inactive | inactive | < 60 | 100 |  |  |  |  |  |  | 
3 | CO/C=C(/C(=O)OC)c1ccccc1COc1ccc(C2=NN(C(C)=O)C(c3ccc(Br)cc3)C2)cc1 (stereo not drawn) | inactive | inactive | < 60 | < 60 |  |  |  |  |  |  | 
4 | CCOCn1c(-c2ccc(Cl)cc2)c(C#N)c(Br)c1C(F)(F)F [CHLORFENAPYR] |  |  |  |  | 18.5 (≈ 45.4 µM) | 100 |  |  |  |  | 
5 | CO/N=C(/C(=O)OC)c1ccccc1COc1ccccc1C [KRESOXIM-METHYL] |  |  | 100 | ≥ 90 |  |  | 1.6 (≈ 5.11 µM) | 24.1 (≈ 76.9 µM) |  |  | 
6 | CO/C=C(/C(=O)OC)c1ccccc1COc1ccccc1C1=NN(C(C)=O)C(c2ccc(Cl)c(Cl)c2)C1 (stereo not drawn) | inactive | inactive | < 60 | < 60 |  |  |  |  |  |  | 
7 | CO/C=C(/C(=O)OC)c1ccccc1COc1cccc(C2=NN(C(C)=O)C(c3cccc(F)c3)C2)c1 (stereo not drawn) | inactive | inactive | < 60 | < 60 |  |  |  |  |  |  | 
8 | CO/C=C(/C(=O)OC)c1ccccc1COc1ccccc1C1=NN(C(C)=O)C(c2cccc(OC)c2)C1 (stereo not drawn) | inactive | inactive | < 60 | < 60 |  |  |  |  |  |  | 
9 | CO/C=C(/C(=O)OC)c1ccccc1COc1ccc(C2=NN(C(C)=O)C(c3ccc(C(C)(C)C)cc3)C2)cc1 (stereo not drawn) | inactive | inactive | < 60 | < 60 |  |  |  |  |  |  | 
10 | CO/C=C(/C(=O)OC)c1ccccc1COc1cccc(C2=NN(C(C)=O)C(c3ccccc3OC)C2)c1 (stereo not drawn) | inactive | inactive | ≥ 80 | ≥ 80 |  |  |  |  |  |  | 
11 | CO/C=C(/C(=O)OC)c1ccccc1COc1ccccc1C1=NN(C(C)=O)C(c2ccc(OC)c(OC)c2)C1 (stereo not drawn) | inactive | inactive | < 60 | < 60 |  |  |  |  |  |  | 
12 | CO/C=C(/C(=O)OC)c1ccccc1COc1ccc(C2=NN(C(C)=O)C(c3ccc(F)cc3)C2)cc1 (stereo not drawn) | inactive | inactive | < 60 | < 60 |  |  |  |  |  |  | 
13 | CO/C=C(/C(=O)OC)c1ccccc1COc1ccc(C2=NN(C(C)=O)C(c3ccc(Cl)cc3)C2)cc1 (stereo not drawn) | inactive | inactive | < 60 | 100 |  |  |  |  |  |  | 
14 | CO/C=C(/C(=O)OC)c1ccccc1COc1ccc(C2=NN(C(C)=O)C(c3cccs3)C2)cc1 (stereo not drawn) | inactive | inactive | ≥ 60 | ≥ 70 |  |  |  |  |  |  | 
15 | CCOc1ccc(C2CC(c3ccc(OCc4ccccc4/C(=C\OC)C(=O)OC)cc3)=NN2C(C)=O)cc1 (stereo not drawn) | inactive | inactive | < 60 | < 60 |  |  |  |  |  |  | 
16 | CO/C=C(/C(=O)OC)c1ccccc1COc1cccc(C2=NN(C(C)=O)C(c3ccccc3F)C2)c1 (stereo not drawn) | inactive | inactive | < 60 | ≥ 90 |  |  |  |  |  |  | 
17 | CO/C=C(/C(=O)OC)c1ccccc1COc1ccccc1C1=NN(C(C)=O)C(c2ccc(Cl)cc2)C1 (stereo not drawn) | inactive | inactive | < 60 | < 60 |  |  |  |  |  |  | 
18 | CO/C=C(/C(=O)OC)c1ccccc1COc1ccc(C2=NN(C(C)=O)C(c3cc(OC)c(OC)c(OC)c3)C2)cc1 (stereo not drawn) | inactive | inactive | < 60 | < 60 |  |  |  |  |  |  | 

Row | Compound | inhibition [1] | inhibition [2] | inhibition in vivo at 200 µg/mL [3] [%] | inhibition in vivo at 200 µg/mL [4] [%] | LC50 [5] [µg/mL] | mortality at 500 µg/mL [6] [%] | IC50 [7] [µg/mL] | IC50 [8] [µg/mL] | mortality at 500 µg/mL [9] [%] | mortality [10] | mortality [11]
19 | CO/C=C(/C(=O)OC)c1ccccc1COc1ccc(C2=NN(C(C)=O)C(c3ccc4c(c3)OCO4)C2)cc1 (stereo not drawn) | inactive | inactive | < 60 | 100 |  |  |  |  |  |  | 
20 | CO/C=C(/C(=O)OC)c1ccccc1COc1cccc(C2=NN(C(C)=O)C(c3ccccc3Br)C2)c1 (stereo not drawn) | inactive | inactive | < 60 | 100 |  |  |  |  |  |  | 
21 | CO/C=C(/C(=O)OC)c1ccccc1COc1cccc(C2=NN(C(C)=O)C(c3cccs3)C2)c1 (stereo not drawn) | inactive | inactive | < 60 | 100 |  |  |  |  |  |  | 
22 | CO/C=C(/C(=O)OC)c1ccccc1COc1cccc(C2=NN(C(C)=O)C(c3ccc4c(c3)OCO4)C2)c1 (stereo not drawn) | inactive | inactive | ≥ 90 | 100 | 26.6 (≈ 50.3 µM) | 100 | 57.6 (≈ 109 µM) | 26.6 (≈ 50.3 µM) | < 60 | inactive | inactive
23 | CO/C=C(/C(=O)OC)c1ccccc1COc1ccccc1C1=NN(C(C)=O)C(c2ccc(Br)cc2)C1 (stereo not drawn) | inactive | inactive | < 60 | < 60 |  |  |  |  |  |  | 
24 | CO/C=C(/C(=O)OC)c1ccccc1COc1ccc(C2=NN(C(C)=O)C(c3cccc(F)c3)C2)cc1 (stereo not drawn) | inactive | inactive | < 60 | < 60 |  |  |  |  |  |  | 
25 | CCOc1ccc(C2CC(c3cccc(OCc4ccccc4/C(=C\OC)C(=O)OC)c3)=NN2C(C)=O)cc1 (stereo not drawn) | inactive | inactive | < 60 | 100 |  |  |  |  |  |  | 
26 | CO/C=C(/C(=O)OC)c1ccccc1COc1ccc(C2=NN(C(C)=O)C(c3ccc(Cl)cc3Cl)C2)cc1 (stereo not drawn) | inactive | inactive | < 60 | < 60 |  |  |  |  |  |  | 
27 | CO/C=C(/C(=O)OC)c1ccccc1COc1ccc(C2=NN(C(C)=O)C(c3cccc(OC)c3)C2)cc1 (stereo not drawn) | inactive | inactive | < 60 | ≥ 70 |  |  |  |  |  |  | 
28 | CO/C=C(/C(=O)OC)c1ccccc1COc1ccc(C2=NN(C(C)=O)C(c3ccc(C)c(C)c3)C2)cc1 (stereo not drawn) | inactive | inactive | < 60 | < 60 |  |  |  |  |  |  | 
29 | CO/C=C(/C(=O)OC)c1ccccc1COc1cccc(C2=NN(C(C)=O)C(c3cc(OC)c(OC)c(OC)c3)C2)c1 (stereo not drawn) | inactive | inactive | < 60 | < 60 |  |  |  |  |  |  | 
30 | CO/C=C(/C(=O)OC)c1ccccc1COc1ccccc1C1=NN(C(C)=O)C(c2ccc(C)c(C)c2)C1 (stereo not drawn) | inactive | inactive | < 60 | < 60 |  |  |  |  |  |  | 
31 | CO/C=C(/C(=O)OC)c1ccccc1COc1cccc(C2=NN(C(C)=O)C(c3ccc(C)cc3)C2)c1 (stereo not drawn) | inactive | inactive | < 60 | 100 |  | ≥ 90 |  |  | < 60 |  | 
32 | CO/C=C(/C(=O)OC)c1ccccc1COc1cccc(C2=NN(C(C)=O)C(c3ccc(C(C)(C)C)cc3)C2)c1 (stereo not drawn) | inactive | inactive | < 60 | ≥ 80 |  | 100 |  |  | ≥ 90 | inactive | inactive
33 | CO/C=C(/C(=O)OC)c1ccccc1COc1cccc(C2=NN(C(C)=O)C(c3ccc(Cl)cc3)C2)c1 (stereo not drawn) | inactive | inactive | < 60 | ≥ 60 |  | 100 |  |  | < 60 | inactive | inactive
34 | CO/C=C(/C(=O)OC)c1ccccc1COc1ccc(C2=NN(C(C)=O)C(c3ccccc3F)C2)cc1 (stereo not drawn) | inactive | inactive | < 60 | < 60 |  |  |  |  |  |  | 
35 | CO/C=C(/C(=O)OC)c1ccccc1COc1ccc(C2=NN(C(C)=O)C(c3ccc(OC)cc3)C2)cc1 (stereo not drawn) | inactive | inactive | < 60 | < 60 |  |  |  |  |  |  | 
36 | CCc1ccc(C2CC(c3ccccc3OCc3ccccc3/C(=C\OC)C(=O)OC)=NN2C(C)=O)cc1 (stereo not drawn) | inactive | inactive | < 60 | 100 |  | 100 |  |  | < 60 | inactive | inactive
